Where two headings read alike, the source gives them in different places.
How the values were obtained:
HepG2 cells = test: IC20-72 hours value used as exposure dose in HepG2 cells; format: cell-based, human
Procedure: All measurements were performed in triplicate.

[1] = tested on: microRNA 1262, microRNA 98 and microRNA 30c-1
bacteria = conditions: cited from earlier work
[2] = GTX/NGTX class as in Tables 3-7; cited from earlier work
[3] = Homo sapiens, HepG2 cells, IC20-72 hours, read-out: Dose (IC20-72 hours value)
[4] = HepG2 cells exposed at Table 1 dose
[5] = number of the three microRNAs predicting correctly
[6] = correct predictions of three independent experiments
[7] = HepG2 cells, IC20-72 hours, read-out: Dose (IC20-72 hours value)

Molecule | IC20 (HepG2 cells; [3]) [µM] | Score / correctness of miRNA prediction, 1262 (number of correct predictions of three independent experiments) (hsa-miR-1262; [4]) | Score / correctness of miRNA prediction, 98 (number of correct predictions of three independent experiments) (hsa-miR-98; [4]) | Score / correctness of miRNA prediction, 30c-1 (number of correct predictions of three independent experiments) (hsa-miR-30c-1*; [4]) | Aggregate result, correct [1, 5] | correctness of microRNA prediction, 885-3p (hsa-miR-885-3p; [6]) | correctness of microRNA prediction, 888* (hsa-miR-888*; [6]) | correctness of microRNA prediction, 1229 (hsa-miR-1229; [6]) | correctness of microRNA prediction, 891b (hsa-miR-891b; [6]) | correctness of microRNA prediction, 302b (hsa-miR-302b; [6]) | correctness of microRNA prediction, 1246 (hsa-miR-1246; [6]) | correctness of microRNA prediction, 502-3p (hsa-miR-502-3p; [6]) | IC20 (HepG2 cells; [7]) [µM] | GTX in vivo [2] | also measured
Aflatoxin B1 |  |  |  |  |  |  |  |  |  |  |  |  |  |  | IC20 (HepG2 cells; read-out: Dose (IC20-72 hours value)): 1 µM; Score / correctness of miRNA prediction, 1262 (number of correct predictions of three independent experiments) (hsa-miR-1262): (2/3); Score / correctness of miRNA prediction, 98 (number of correct predictions of three independent experiments) (hsa-miR-98): (2/3); Score / correctness of miRNA prediction, 30c-1 (number of correct predictions of three independent experiments) (hsa-miR-30c-1*): (2/3); Aggregate result, correct [1]: 3/3; correctness of microRNA prediction, 885-3p (hsa-miR-885-3p): (1/3); correctness of microRNA prediction, 888* (hsa-miR-888*): (3/3); correctness of microRNA prediction, 1229 (hsa-miR-1229): (1/3); correctness of microRNA prediction, 891b (hsa-miR-891b): (2/3); correctness of microRNA prediction, 302b (hsa-miR-302b): (2/3); correctness of microRNA prediction, 1246 (hsa-miR-1246): (1/3); correctness of microRNA prediction, 502-3p (hsa-miR-502-3p): (2/3)
Oc1cccc2cccnc12 [8-quinolinol] |  |  |  |  |  |  |  |  |  |  |  |  |  |  | IC20 (HepG2 cells; Homo sapiens, HepG2, read-out: Dose (IC20-72 hours value)): 15 µM; Prediction, miRNA 98 (hsa-miR-98): NGTX (key: GTX: hsa-miR-98: Prediction if Expression is above Reference value; NGTX: hsa-miR-98: Prediction if Expression is below Reference value); Score / correctness of miRNA prediction, 98 (number of correct predictions of three independent experiments) (hsa-miR-98; human): (3/3); Prediction, miRNA 30c-1 (hsa-miR-30c-1*): GTX (key: GTX: hsa-miR-30c-1*: Prediction if Expression is above Reference value; NGTX: hsa-miR-30c-1*: Prediction if Expression is below Reference value); Score / correctness of miRNA prediction, 30c-1 (number of correct predictions of three independent experiments) (hsa-miR-30c-1*; human): (1/3); Aggregate result, result [1]: NGTX; Aggregate result, correct ([1]; human): 2/3; correctness of microRNA prediction, 885-3p (hsa-miR-885-3p; human): (1/3); correctness of microRNA prediction, 888* (hsa-miR-888*; human): (3/3); correctness of microRNA prediction, 1229 (hsa-miR-1229; human): (3/3); correctness of microRNA prediction, 891b (hsa-miR-891b; human): (3/3); correctness of microRNA prediction, 302b (hsa-miR-302b; human): (1/3); correctness of microRNA prediction, 1246 (hsa-miR-1246; human): (0/3); correctness of microRNA prediction, 502-3p (hsa-miR-502-3p; human): (2/3); Ames test result (bacteria): +
CC1(C)S[C@@H]2[C@H](NC(=O)[C@H](N)c3ccccc3)C(=O)N2[C@H]1C(=O)O [Ampicillin trihydrate] | 250 | (2/3) | (3/3) | (3/3) | 3/3 | (3/3) | (3/3) | (3/3) | (2/3) | (2/3) | (1/3) | (3/3) |  |  | 
N.N.[Cl][Pt][Cl] [Cisplatin] |  |  |  |  | 3/3 |  |  |  |  |  |  |  | 7 | GTX | 
c1ccc2c(c1)cc1ccc3cccc4ccc2c1c34 [Benzo[a]pyere] |  | (2/3) | (2/3) | (2/3) | 3/3 | (2/3) | (2/3) | (3/3) | (3/3) | (2/3) | (3/3) | (2/3) | 2 |  | 
Clc1cc2c(cc1Cl)Oc1cc(Cl)c(Cl)cc1O2 [2,3,7,8-tetrachloro dibenzo-p-dioxin] | 0.01 | (3/3) | (3/3) | (2/3) | 3/3 | (3/3) | (1/3) | (2/3) | (2/3) | (2/3) | (3/3) | (2/3) |  | NGTX | Ames test result (bacteria): −
C[C@]12CC[C@@H]3c4ccc(O)cc4CC[C@H]3[C@@H]1CC[C@@H]2O [17beta-estradiol, 17 beta-estradiol] |  |  |  |  | 3/3 |  |  |  |  |  |  |  | 30 | NGTX | 
O=c1c(O)c(-c2ccc(O)c(O)c2)oc2cc(O)cc(O)c12 [Quercetin] | 50 | (3/3) | (1/3) | (3/3) | 2/3 | (1/3) | (1/3) | (1/3) | (2/3) | (1/3) | (2/3) | (1/3) |  | NGTX | 

— US20130244896A1, “IN VITRO METHOD FOR PREDICTING WHETHER A COMPOUND IS GENOTOXIC IN VIVO” (priority 2012, published 2013)
